Data from ChEMBL document CHEMBL1212740, “Long-lasting enfuvirtide carrier pentasaccharide conjugates with potent anti-human immunodeficiency virus type 1 activity” (Antimicrob Agents Chemother, 2010).

Experiments:
[1] = system: Human immunodeficiency virus 1; assay: Antiviral activity against HIV1 US2 clade B, R5 in human PBMC assessed as p24 antigen level by ELISA; assay type: functional, organism-based; conditions: Human immunodeficiency virus 1, US2
[2] = system: Human immunodeficiency virus 1; assay: Antiviral activity against HIV1 UG273 clade A, R5 in human PBMC assessed as p24 antigen level by ELISA; assay type: functional, organism-based; conditions: Human immunodeficiency virus 1, UG273
[3] = system: Human immunodeficiency virus 1; assay: Antiviral activity against HIV1 ETH2220 in human PBMC assessed as p24 antigen level by ELISA; assay type: functional, organism-based; conditions: Human immunodeficiency virus 1, ETH2220
[4] = system: Human immunodeficiency virus 1; assay: Antiviral activity against HIV1 NL4.3 in human PBMC assessed as p24 antigen level by ELISA; assay type: functional, organism-based; conditions: Human immunodeficiency virus 1, NL4.3
[5] = system: Human immunodeficiency virus 1; assay: Antiviral activity against HIV1 BZ167 in human PBMC assessed as p24 antigen level by ELISA; assay type: functional, organism-based; conditions: Human immunodeficiency virus 1, BZ167
[6] = system: Human immunodeficiency virus 1; assay: Antiviral activity against HIV1 Ba-L in human PBMC assessed as p24 antigen level by ELISA; assay type: functional, organism-based; conditions: Human immunodeficiency virus 1, Ba-L
[7] = system: Human immunodeficiency virus 1; assay: Antiviral activity against HIV1 strain I-2496 in human PBMC assessed as p24 antigen level by ELISA; assay type: functional, organism-based; conditions: Human immunodeficiency virus 1, I-2496
[8] = system: Human immunodeficiency virus 1; assay: Antiviral activity against HIV1 DJ259 in human PBMC assessed as p24 antigen level by ELISA; assay type: functional, organism-based; conditions: Human immunodeficiency virus 1, DJ259
[9] = Elimination half life in Wister rat at 4 mg/ kg, iv; assay type: ADME, organism-based; set-up: dose 4 mg/ kg, route intravenous; conditions: Wistar, in vivo
[10] = system: Human immunodeficiency virus 1; assay: Antiviral activity against HIV1 3B/LA1 infected in HUT-78 cells co-cultured with uninfected human SupT1 CD4+ T-cell assessed as inhibition of envelope mediated cell-cell fusion after 16-20 hrs by cell-cell fusion assay; assay type: functional, organism-based; conditions: Human immunodeficiency virus 1, 3B/LA1, HuT78
[11] = system: Human immunodeficiency virus 1; assay: Antiviral activity against HIV1 3B/LA1 infected in human CD4+ T-cell assessed as inhibition of giant cell formation; assay type: functional, organism-based; conditions: Human immunodeficiency virus 1, 3B/LA1, CD4+ T cell
CCRF-CEM = assay: Cytotoxicity against human CEM cells up to 100 uM by MTS assay; assay type: cell-based
[12] = system: Human immunodeficiency virus 2; assay: Antiviral activity against Human immunodeficiency virus 2 ROD infected in human CD4+ T-cell assessed as inhibition of giant cell formation; assay type: functional, organism-based; conditions: Human immunodeficiency virus 2, ISOLATE ROD
PBMC = assay: Cytotoxicity against human PBMC up to 100 uM by MTS assay; assay type: cell-based

EC50 [1] | EC50 [2] | EC50 [3] | EC50 [4] | EC50 [5] | EC50 [6] | EC50 [7] | EC50 [8] | Molecule | half-life [9] | EC50 [10] | EC50 [11] | Activity (CCRF-CEM) | EC50 [12] | Activity (PBMC)
> 1000 nM | > 1000 nM | > 1000 nM | 3.6 nM | 18.5 nM | > 1000 nM | > 1000 nM | > 1000 nM | c1cc(CN2CCCNCCNCCCNCC2)ccc1CN1CCCNCCNCCCNCC1 [PLERIXAFOR] | – | – | – | – | – | –
0.3 nM | 2.6 nM | 3.6 nM | > 1000 nM | > 1000 nM | 3.8 nM | 0.4 nM | 3.7 nM | Cc1nnc(C(C)C)n1[C@H]1C[C@H]2CC[C@@H](C1)N2CC[C@H](NC(=O)C1CCC(F)(F)CC1)c1ccccc1 [MARAVIROC] | – | – | – | – | – | –

Molecule | EC50 [1] | EC50 [2] | EC50 [3] | EC50 [4] | EC50 [5] | EC50 [6] | EC50 [7] | EC50 [8] | half-life [9] | EC50 [10] | EC50 [11] | Activity (CCRF-CEM) | EC50 [12] | Activity (PBMC)
enfuvirtide | 6.3 nM | 55.9 nM | 17.7 nM | 3.6 nM | 17.9 nM | 17.9 nM | 12.4 nM | 17.9 nM | 2.8 h | 275 nM | 3 nM | Toxic | 360 nM | Toxic
